{"source": "patent US10285597B2", "about": "(dated 2019)", "origin": "cited, not measured here", "conditions": "TOL relative to TOSS (Ain=1 by definition); according to Bouillon et al., Anesthesiology 2004; 101: A503", "data": [{"smiles": "CC(C)c1cccc(C(C)C)c1O", "note": "[propofol]", "values": [{"measurement": "C50 ratio of propofol for the tolerance of laryngoscopy as well as tolerance of shaking and loud shouting (stimulus intensity Ain for TOL)", "value": 2.83}]}]}
